From patent publication US11919902B2, “Aryl-bipyridine amine derivatives as phosphatidylinositol phosphate kinase inhibitors” (HiberCell, Inc., priority 2017, dated 2024)

How the values were obtained:
[1] = target: T1, GST tagged PIP4KtypeIIB (Homo sapiens, UniProt P78356); experiment: Trans-FI P kinase assay PIP4K2B (PIP4KtypeIIB inhibition assay); type: biochemical; settings: Table 4; compounds listed under IC50 range headings; 100 uM GTP, 5 nM PIP4KIIB; read-out: Trans-FI P kinase assays: PIP4K2B IC50
T1 construct: made in house; host or cells: E. coli
T1 sequence (P78356 1-416): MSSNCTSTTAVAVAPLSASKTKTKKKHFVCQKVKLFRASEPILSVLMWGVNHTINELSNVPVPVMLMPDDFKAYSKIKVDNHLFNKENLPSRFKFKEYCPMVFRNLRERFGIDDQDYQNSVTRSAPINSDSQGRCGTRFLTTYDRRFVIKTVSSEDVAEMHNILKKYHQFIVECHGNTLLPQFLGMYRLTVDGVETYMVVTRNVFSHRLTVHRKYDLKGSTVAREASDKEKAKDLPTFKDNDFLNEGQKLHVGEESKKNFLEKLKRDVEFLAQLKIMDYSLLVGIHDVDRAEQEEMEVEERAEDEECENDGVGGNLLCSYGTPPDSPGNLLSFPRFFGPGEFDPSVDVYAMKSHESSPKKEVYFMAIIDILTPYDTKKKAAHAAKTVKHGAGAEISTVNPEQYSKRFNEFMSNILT
From the text: GST tagged PIP4KtypeIIA and B enzymes were overexpressed in E. Coli and purified to >80% homogeneity. Phosphatidyl inositol-5-phosphate (PI5P, Cat. #850152, Avanti Polar Lipids Inc.) was used as the lipid substrate and phosphatidyl ethanolamine (DOPE 18:1, Cat. #850725, Avanti Polar Lipids Inc.) was used as the carrier lipid for assays. Ultrapure ATP and GTP was purchased from Bellbrooke Labs. ADP Glo reagents were obtained from Promega. Transcreener FI reagent was obtained from Bellbrooke labs.
1. HEPES buffer mix: 200 mM HEPES pH 7.4, 50 mM MgCl2, 0.05% v/v triton×100
2. HNE buffer: 20 mM HEPES, pH 7.4, 100 mM NaCl, 0.5 mM EGTA
3. H:E buffer: 30 mM HEPES, pH 7.4, 1 mM EGTA
GST-tagged PIP4KtypeIIB (3.4 uL, 2.77 mg/mL) was diluted to 5 mL using HNE buffer to yield 5× enzyme stock (25 nM)
Lipid Preparation: In a 10 mL pyrex glass vial, lug of PI5P and lug of DOPE were suspended in 2.5 mL of HEPES buffer mix and 2.5 mL of H:E buffer. The contents were mixed and sonicated for 3 min to yield a translucent lipid stock.
Compound Preparation: Compounds were stored as 5 mM stocks in neat DMSO as room temperature in glass vials. 5 mM stocks were diluted to 2 mM and then serially diluted (3×) in neat DMSO in 96 well polypropylene plates. From the serially diluted stocks, 3 uL was delivered into 250 uL of 25% DMSO (in water) to generate 5× compound stocks. Typically, the highest compound conc. was 24 uM.
The assay volume was kept at 25 uL. To each well of the reaction plate, 10 uL of lipid stock (1:1 ratio PI5P:DOPE) was delivered. This was followed by the addition of 5 uL of compound in 25% DMSO. Then, to each well, 5 uL of 25 nM (5×) typeIIB enzyme was delivered. The contents were mixed well and incubated for 1 h at 27 C. After 1 h, reaction was initiated by adding 5 uL of 500 uM GTP and the contents were mixed well with a multi-channel pipetteman. The final concentration of the reagents are as follows: 50 mM HEPES, pH 7.3, 10 mM MgCl2, 20 mM NaCl, 0.01% v/v triton-X100, 5% DMSO, 100 uM GTP, 80 uM (2 ug) PI5P, 2 ug DOPE, and 5 nM PIP4KIIB Typically, the highest conc. of compounds was 4.8 uM and the lowest conc. was 0.
After 2 h, the reaction was quenched by adding 25 uL of transcreener FI reagent. The contents were incubated at RT for 1 h and the Fluorescence (Ex: 584 Em: 623) was read using Molecular Devices Paradigm plate reader. […] The blanks were averaged and subtracted from all other wells. Using a calibration curve, RFU was converted to uM GDP (product). IC50 was calculated by plotting the residual activity (expressed as % No inhibitor control) vs. log [Inh. conc.] Table 2 represents PI5P4K activity of compounds (Example No.) of the invention arranged in accordance with the inhibition of PIP4K2 A kinase assay.

[2] = target: T2, PIP4K2A (full length protein, SignalChem) (Homo sapiens, UniProt P48426); experiment: Kinase Assay PIP4K2 A (Sprint); ADP-Glo biochemical assay; settings: Table 2; compounds listed under IC50 range headings
T2 construct: 4 nM PIP4K2A (full length protein, SignalChem); purchased SignalChem
T2 sequence (P48426 1-406): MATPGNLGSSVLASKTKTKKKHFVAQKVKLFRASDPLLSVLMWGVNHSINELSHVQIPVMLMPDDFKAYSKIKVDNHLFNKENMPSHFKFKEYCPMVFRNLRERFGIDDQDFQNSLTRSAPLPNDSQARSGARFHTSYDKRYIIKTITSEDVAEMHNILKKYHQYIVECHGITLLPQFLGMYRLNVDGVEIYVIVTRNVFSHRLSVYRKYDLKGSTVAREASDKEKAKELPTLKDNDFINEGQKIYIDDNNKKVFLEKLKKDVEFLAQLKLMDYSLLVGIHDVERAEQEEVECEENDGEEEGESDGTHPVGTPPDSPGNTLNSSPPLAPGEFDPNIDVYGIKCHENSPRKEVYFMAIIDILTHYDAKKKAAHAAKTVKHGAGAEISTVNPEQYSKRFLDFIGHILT
Description: Dilution series of the compounds were prepared in DMSO at 100 times the final assay concentration (n1=n0/3 in 10 points). The compounds were further diluted to three times the assay concentration in assay buffer (20 mM MOPS pH 7.2, 25 mM magnesium chloride, 0.005% Tween 20). 6 μL of the diluted compounds were added to a 384 well assay plate followed by 9 μL of a mix consisting of 4 nM PIP4K2A (full length protein, SignalChem) and 100 μM PI(5)P diC8 (Tebu-Bio). Enzyme and compounds were pre-incubated at room temperature for 15 min.
Then 3 μL of a solution containing 60 μM ATP (Promega) in assay buffer was added to the wells containing compound and enzyme and mixing was performed by pipetting several times. The reaction was incubated at room temperature for 1 h. Then 18 μL of ADP-Glo™ Reagent (Promega) was added to stop the kinase reaction and deplete the unconsumed ATP, mixing was performed by pipetting several times. The plate was incubated at room temperature for 40 min before addition of 36 μL of Kinase Detection Reagent (Promega) to convert ADP to ATP and introduce luciferase and luciferin to detect ATP. The reaction was incubated at room temperature for 40 min before the luminescence was measured in a in a Victor 3V 1420 multilabel counter (Perkin Elmer).
Percent inhibition of the compounds as compared to dimethyl sulfoxide treated control samples was calculated. Compound concentration versus percent inhibition were fitted to generate IC50 values.

Row | Compound | IC50 [1] | IC50 [2]
1 | CN(C)C(=O)c1ccc(-c2cc(-c3cnc4c(c3)c(-c3cncnc3)cn4C)cnc2N)nc1 [Example 122, 2′-amino-N,N-dimethyl-5′-(1-methyl-3-(pyrimidin-5-yl)-1H-pyrrolo[2,3-b]pyridin-5-yl)-[2,3′-bipyridine]-5-carboxamide] | 1000 to 2500 nM | 100 to 1000 nM
2 | CC(C)(O)c1cnc2[nH]c(C3CC3)c(-c3cncc(-c4ccc(N5CCCC5=O)cc4)c3)c2c1 [Example 338, 1-(4-(5-(2-cyclopropyl-5-(2-hydroxypropan-2-yl)-1H-pyrrolo[2,3-b]pyridin-3-yl)pyridin-3-yl)phenyl)pyrrolidin-2-one] | 10 to 100 nM | 100 to 1000 nM
3 | Nc1ncc(-c2cnc3ncc(-c4cncc(-c5ccc(N6CCCC6=O)cc5)c4)cn23)cn1 [Example 334, 1-(4-(5-(3-(2-aminopyrimidin-5-yl)imidazo[1,2-a]pyrimidin-6-yl)pyridin-3-yl)phenyl)pyrrolidin-2-one] | 100 to 1000 nM | 100 to 1000 nM
4 | CNC(=O)c1cc2c(-c3cnc(N)c(-c4ccc(-c5nncn5C(C)C)cc4)c3)ccnc2o1 [Example 362, 4-(6-amino-5-(4-(4-isopropyl-4H-1,2,4-triazol-3-yl)phenyl)pyridin-3-yl)-N-methylfuro[2,3-b]pyridine-2-carboxamide] | 10 to 100 nM | 100 to 1000 nM
5 | CC(C)n1cnnc1-c1ccc(-c2cc(-c3ccnc4oc(C(=O)NCC5CC5)cc34)cnc2N)cc1 [Example 392, 4-(6-amino-5-(4-(4-isopropyl-4H-1,2,4-triazol-3-yl)phenyl)pyridin-3-yl)-N-(cyclopropylmethyl)furo[2,3-b]pyridine-2-carboxamide] | 1 to 10 nM | 100 to 1000 nM
6 | Cc1cc(N2CCn3c(cc4c(-c5cncc(-c6ccc(N7CCCC7=O)cc6)c5)ccnc43)C2=O)nn1C [Example 331, 7-(1,5-dimethyl-1H-pyrazol-3-yl)-4-(5-(4-(2-oxopyrrolidin-1-yl)phenyl)pyridin-3-yl)-8,9-dihydropyrido[3′,2′:4,5]pyrrolo[1,2-a]pyrazin-6(7H)-one] | 10 to 100 nM | 100 to 1000 nM
7 | COC(=O)c1cc2c(-c3cncc(-c4ccc(-c5nncn5C(C)C)cc4)c3)ccnc2[nH]1 [Example 211, methyl 4-(5-(4-(4-isopropyl-4H-1,2,4-triazol-3-yl)phenyl)pyridin-3-yl)-1H-pyrrolo[2,3-b]pyridine-2-carboxylate] | 1 to 10 nM | 5 to 100 nM
8 | CC(C)n1nnnc1-c1ccc(-c2cncc(-c3ccnc4c3cc3n4CCN(C)C3=O)c2)cc1 [Example 387, 4-(5-(4-(1-isopropyl-1H-tetrazol-5-yl)phenyl)pyridin-3-yl)-7-methyl-8,9-dihydropyrido[3′,2′:4,5]pyrrolo[1,2-a]pyrazin-6(7H)-one] | 1 to 10 nM | 100 to 1000 nM
9 | CC(C)c1cnnn1-c1ccc(-c2cncc(-c3ccnc4c3cc3n4CCN(c4ccccn4)C3=O)c2)cc1 [Example 357, 4-(5-(4-(5-isopropyl-1H-1,2,3-triazol-1-yl)phenyl)pyridin-3-yl)-7-(pyridin-2-yl)-8,9-dihydropyrido[3′,2′:4,5]pyrrolo[1,2-a]pyrazin-6(7H)-one] | 1 to 10 nM | 5 to 100 nM
10 | CN1CCn2c(cc3c(-c4cncc(-c5ccc(-c6nnc7n6CCC7)cc5)c4)ccnc32)C1=O [Example 348, 4-(5-(4-(6,7-dihydro-5H-pyrrolo[2,1-c][1,2,4]triazol-3-yl)phenyl)pyridin-3-yl)-7-methyl-8,9-dihydropyrido[3′,2′:4,5]pyrrolo[1,2-a]pyrazin-6(7H)-one] | 100 to 1000 nM | 100 to 1000 nM
11 | CN1CCn2c(cc3c(-c4cncc(-c5ccc(C(=O)N6C7CCC6CC7)cc5)c4)ccnc32)C1=O [Example 382, 4-(5-(4-(7-azabicyclo[2.2.1]heptane-7-carbonyl)phenyl)pyridin-3-yl)-7-methyl-8,9-dihydropyrido[3′,2′:4,5]pyrrolo[1,2-a]pyrazin-6(7H)-one] | 100 to 1000 nM | 100 to 1000 nM
